Results as given in patent publication US12234211B2, “Cycloolefin substituted heteroaromatic compounds and their use” (HUTCHISON MEDIPHARMA LIMITED, priority 2017, dated 2025).

Legend:
[1] = biological target: T1, IDH2-R140Q (Homo sapiens, UniProt P48735, R140Q); assay: Fluorescent determination of IDH2-R140Q cell activity (2-HG in U87MGR140Q cells); format: cell-based; conditions: 72 hours incubation, read-out: IC50 (2-HG inhibition)
T1 construct: expressed in transfected cells
T1 sequence (P48735 40-452 R140Q): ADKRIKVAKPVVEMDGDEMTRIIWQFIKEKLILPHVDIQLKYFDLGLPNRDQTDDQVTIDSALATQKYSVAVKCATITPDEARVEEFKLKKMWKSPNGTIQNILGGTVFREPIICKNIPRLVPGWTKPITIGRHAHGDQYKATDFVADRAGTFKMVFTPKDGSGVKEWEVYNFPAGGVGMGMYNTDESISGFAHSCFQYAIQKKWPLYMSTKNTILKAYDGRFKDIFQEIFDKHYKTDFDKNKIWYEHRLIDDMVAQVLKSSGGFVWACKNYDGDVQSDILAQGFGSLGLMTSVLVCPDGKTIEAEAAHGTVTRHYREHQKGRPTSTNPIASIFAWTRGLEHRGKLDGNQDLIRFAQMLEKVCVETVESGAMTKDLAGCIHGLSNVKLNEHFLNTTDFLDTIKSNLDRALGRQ
Description: Enzyme reaction solution: 1 mM nicotinamide adenine dinucleotide (NAD), 0.6 ng/μL D-2-hydroxyglutarate dehydrogenase (D2HGDH), 0.8 U/mL lipoamidase dehydrogenase (Diaphorase) and 60 μM Resazurin in 40 mM Tris.HCl pH 8.8 assay buffer.
Standard curve stock solution: The standard of 2-HG sodium salt was serially diluted in serum-free MEM medium to make a standard curve stock solution.
100 μL of U87MGR140Q cells were seeded at a density of 6×10^4/mL per well in a 96-well plate a.
From each well of 96-well plate a, 50 μL of the culture supernatant was transferred to the corresponding well of 96-well plate b; at the same time, 50 μL of standard curve stocking solution was added to other wells of 96-well plate b. Then 10 μl of 360 mM hydrochloric acid was added to all the wells. After shaking and mixing, the plate was placed on ice for 10 minutes, and then 10 μl of 420 mM Tris-base was added. After shaking and mixing, the plate was placed on ice for additional 5 minutes. Then the plate was centrifuged at 2500 rpm for 10 minutes.
After centrifuging, from each well of 96-well plate b, 20 μL of the supernatant was transferred to 96-well plate c. An additional 80 μL of the enzyme reaction solution was added to each well and incubated at 25° C. for 90 minutes.
A standard curve of the fluorescence value vs. the corresponding 2-HG concentration was made, and the 2-HG concentration corresponding to each concentration point of the compound was calculated, then the inhibition ratio was calculated, and the data was analyzed using XLfit5 (ID Business Solutions Limited) software to obtain the IC50 value.
The inhibition ratio was calculated as follows: Inhibition Ratio (IH %)=(1-2-HG concentration of test compound treated cells/2-HG concentration of control cells)×100%.

[2] = biological target: T2, IDH1-R132H (Homo sapiens, UniProt O75874, R132H); assay: Fluorescent determination of IDH1-R132H cell activity (2-HG in U87MGR132H cells); format: cell-based; conditions: 2-HG inhibition in U87MGR132H cells transfected with IDH1-R132H mutant plasmid
T2 construct: expressed in transfected cells; host or cells: U87MG cells (U87MGR132H)
T2 sequence (O75874 whole entry R132H): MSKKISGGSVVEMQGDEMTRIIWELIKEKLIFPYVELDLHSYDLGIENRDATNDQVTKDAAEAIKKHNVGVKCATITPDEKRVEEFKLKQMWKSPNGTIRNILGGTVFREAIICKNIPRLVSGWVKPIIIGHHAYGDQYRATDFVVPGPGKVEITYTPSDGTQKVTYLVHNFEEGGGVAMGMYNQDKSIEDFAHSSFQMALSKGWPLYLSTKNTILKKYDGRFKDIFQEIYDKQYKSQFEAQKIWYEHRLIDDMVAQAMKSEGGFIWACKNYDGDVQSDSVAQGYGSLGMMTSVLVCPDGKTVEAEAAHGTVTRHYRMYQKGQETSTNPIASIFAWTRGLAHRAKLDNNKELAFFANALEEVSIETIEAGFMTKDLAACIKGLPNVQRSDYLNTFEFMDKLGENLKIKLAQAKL

SMILES | IC50 [1] [nM] | IC50 [2] [nM]
CC(C)(C)ONc1nc(Nc2cc(C(F)(F)F)ncn2)nc(C2=C(F)C(O)CCC2)n1 (centres unmarked) [Compound 75] | 218 | > 10000
[2H]C1(O)CCCCC(c2nc(NC3CC(F)(F)C3)nc(N[C@H](C)C(F)(F)F)n2)=C1F (mixture of isomers) [Compound 24] | 197 | 769
C[C@@H](Nc1nc(NCC2CCC2(F)F)nc(C2=C(F)C(O)CCC2)n1)C(F)(F)F (mixture of isomers) [Compound 171] | 268 | 1570
CC(C)Nc1nc(Nc2ccc3ccnn3c2)nc(C2=C(F)C(O)CCC2)n1 (racemic) [Compound 200] | 632 | > 10000
CC(C)Nc1nc(Nc2ccc3nscc3c2)nc(C2=C(F)C(O)CCC2)n1 (racemic) [Compound 229] | 383 | > 10000
OC1CCCCC(c2nc(NC3CC(F)(F)C3)nc(NC3CC(F)(F)C3)n2)=C1F (centres unmarked) [Compound 39, (*)3-(4,6-Bis((3,3-difluorocyclobutyl)amino)-1,3,5-triazin-2-yl)-2-fluorocyclohept-2-en-1-ol] | 164 | 1910
CC(C)(C)ONc1nc(Nc2cc(Cl)ccn2)nc(C2=C(F)C(O)CCC2)n1 (centres unmarked) [Compound 61] | 170 | > 10000
C[C@@H](Nc1nc(N[C@@H]2CCC(F)(F)C2)nc(C2=C(F)C(O)C(F)CC2)n1)C(F)(F)F (single isomer, unassigned) [Compound 233] | 368 | 628
C[C@@H](Nc1nc(NC2CC(F)(F)C2)nc(C2=C(F)C(O)CCCC2)n1)C(F)(F)F (some centres unmarked) [Compound 40] | 106 | 450
CC(Nc1nc(N[C@H](C)C(F)(F)F)nc(C2=C(F)C(O)CCC2)n1)C(F)F (mixture of isomers) [Compound 174] | 96 | 343
C[C@@H](Nc1nc(NCC2CC2)nc(C2=C(F)C(O)CCC2)n1)C(F)(F)F (some centres unmarked) [Compound 80] | 79 | 2700
CC(C)(C)ONc1nc(Nc2cc(C#N)ccn2)nc(C2=C(F)C(O)CCC2)n1 (centres unmarked) [Compound 60] | 590 | > 10000
C[C@@H](CF)Nc1nc(N[C@H](C)C(F)(F)F)nc(C2=C(F)C(O)CCC2)n1 (mixture of isomers) [Compound 170] | 1380 | 6930
C[C@@H](Nc1nc(NCC(F)(F)F)nc(C2=C(F)C(O)C(F)(F)CC2)n1)C(F)(F)F (mixture of isomers) [Compound 245] | – | 1500
C[C@@H](Nc1nc(N[C@@H]2CCOC2)nc(C2=CC(O)CCC2)n1)C(F)(F)F (some centres unmarked) [Compound 179] | 598 | –
CC(C)Nc1nc(N[C@H](C)C(F)(F)F)nc(C2=CC(F)CCC2)n1 (mixture of isomers) [Compound 36] | 181 | –
C[C@@H](Nc1nc(NCC(C)(C)O)nc(C2=CC(O)CCC2)n1)C(F)(F)F (mixture of isomers) [Compound 131] | 2800 | –
COC1C=C(c2nc(N[C@H](C)C(F)(F)F)nc(N[C@H](C)C(F)(F)F)n2)CCC1 (mixture of isomers) [Compound 140, 6-(3-Methoxycyclohex-1-en-1-yl)-N^2,N^4-bis((R)-1,1,1-trifluoropropan-2-yl)-1,3,5-triazine-2,4-diamine] | 2390 | –
CC[C@@H](C)Nc1nc(N[C@H](C)C(F)(F)F)nc(C2=C(F)C(O)CCC2)n1 (mixture of isomers) [Compound 164] | 176 | –
C[C@H](CF)Nc1nc(NC2CC(F)(F)C2)nc(C2=C(F)C(O)CCC2)n1 (some centres unmarked) [Compound 43] | 328 | –
C[C@@H](Nc1nc(Nc2ccn3ccnc3c2)nc(C2=C(F)C(O)CCC2)n1)C(F)(F)F (some centres unmarked) [Compound 44] | 3150 | –
CC(C)Nc1nc(N[C@H](C)C(F)(F)F)nc(C2=CC(=O)CCC2)n1 [Compound 122, (R)-3-(4-(isopropylamino)-6-((1,1,1-trifluoropropan-2-yl)amino)-1,3,5-triazin-2-yl)cyclohex-2-en-1-one] | 1340 | –

Continued, values first:

IC50 [1] [nM] | IC50 [2] [nM] | SMILES
417 | 705 | C[C@@H](Nc1nc(NC2CC(F)(F)C2)nc(C2=C(F)C(O)C(F)CC2)n1)C(F)(F)F (single isomer, unassigned) [Compound 228]
38 | > 10000 | OC1C(F)=C(c2nc(NOCC3CC3)nc(Nc3ccnc(C(F)(F)F)c3)n2)CCC1(F)F (centres unmarked) [Compound 213]
381 | > 10000 | OC1C(F)=C(c2nc(Nc3ccnc(C(F)(F)F)c3)nc(N3CCC(F)(F)C3)n2)CCC1(F)F (centres unmarked) [Compound 218]
145 | > 10000 | CC(C)(C)ONc1nc(Nc2ccc3sncc3c2)nc(C2=C(F)C(O)CCC2)n1 (racemic) [Compound 34]
291 | 495 | CC(Nc1nc(N[C@H](C)C(F)(F)F)nc(C2=C(F)C(O)CCC2)n1)C(C)(F)F (mixture of isomers) [Compound 175]
15 | 1680 | [2H]C([2H])([2H])C([2H])(Nc1nc(Nc2ccnc(C(F)(F)F)c2)nc(C2=C(F)C(O)CCC2)n1)C([2H])([2H])[2H] (centres unmarked) [Compound 54]
80 | 610 | C[C@H](Nc1nc(NC2CC(F)(F)C2)nc(C2=C(F)C(O)CCC2)n1)C(F)(F)F (mixture of isomers) [Compound 32]
675 | 2700 | CC(C)Nc1nc(N[C@H](C)C(F)(F)F)nc(C2=C(F)C(O)C(F)CC2)n1 (single isomer, unassigned) [Compound 96]
137 | 4650 | C[C@@H](Nc1nc(NC2CC2)nc(C2=C(F)C(O)CCC2)n1)C(F)(F)F (some centres unmarked) [Compound 224]
1340 | 2700 | CC(C)Nc1nc(Nc2ccc3ccccc3n2)nc(C2=C(F)C(O)CCC2)n1 (centres unmarked) [Compound 62]
> 10000 | > 10000 | C[C@@H](Nc1nc(N)nc(C2=C(F)C(O)C(F)(F)CC2)n1)C(F)(F)F (stereo partly drawn) [Compound 280, 3-(4-Amino-6-(((R)-1,1,1-trifluoropropan-2-yl)amino)-1,3,5-triazin-2-yl)-2,6,6-trifluoro-cyclohex-2-en-1-ol]
802 | 3520 | C[C@@H](Nc1nc(N[C@H](C)C(F)(F)F)nc(C2=C(F)C(=O)C(F)CC2)n1)C(F)(F)F (mixture of isomers) [Compound 242, 3-(4,6-Bis(((R)-1,1,1-trifluoropropan-2-yl)amino)-1,3,5-triazin-2-yl)-2,6-difluoro-cyclohex-2-en-1-one]
67 | 733 | C[C@@H](Nc1nc(NC2CCCC2)nc(C2=CC(O)CCC2)n1)C(F)(F)F (mixture of isomers) [Compound 130]
198 | – | CC[C@H](C)Nc1nc(N[C@H](C)C(F)(F)F)nc(C2=C(F)C(O)CCC2)n1 (mixture of isomers) [Compound 165]
591 | – | CC(C)Nc1nc(N[C@H](C)C(F)(F)F)nc(C2=C(F)C(F)CCC2)n1 (mixture of isomers) [Compound 35, 6-(2,3-Difluorocyclohex-1-en-1-yl)-N^2-isopropyl-N^4-((R)-1,1,1-trifluoropropan-2-yl)-1,3,5-triazine-2,4-diamine]
336 | – | [2H]C1(O)CCCCC(c2nc(NC3CC(F)(F)C3)nc(NC3CC(F)(F)C3)n2)=C1F (centres unmarked) [Compound 22]
202 | – | C[C@@H](Nc1nc(NCC(F)(F)F)nc(C2=CC(O)CCC2)n1)C(F)(F)F (mixture of isomers) [Compound 154]
314 | – | C[C@@H](Nc1nc(NCC2CC2)nc(C2=CCCCC2)n1)C(F)(F)F [Compound 192]
336 | – | CCNc1nc(N[C@H](C)C(F)(F)F)nc(C2=CC(O)CCC2)n1 (mixture of isomers) [Compound 135]
1230 | – | C[C@@H](Nc1nc(N[C@@H]2CCC[C@@H]2O)nc(C2=CC(O)CCC2)n1)C(F)(F)F (some centres unmarked) [Compound 182]
152 | – | C[C@@H](Nc1nc(NC2CC23CC3)nc(C2=C(F)C(O)CCC2)n1)C(F)(F)F (mixture of isomers) [Compound 42]
1620 | – | CC(C)Nc1nc(N[C@H](C)C(F)(F)F)nc(C2=C(Cl)C(O)CCC2)n1 (mixture of isomers) [Compound 17]
143 | – | [2H]C1([2H])CCC(c2nc(NC(C)C)nc(NC3CC(F)(F)C3)n2)=C(F)C1([2H])O (racemic) [Compound 92]
